In PMC7998974, “Enhanced Efficacy of Thiosemicarbazone Derivative-Encapsulated Fibrin Liposomes against Candidiasis in Murine Model” (Pharmaceutics, 2021):
Values after ≈ are worked out from the molar mass of the structure shown. One block for each compound: values may come before it.

Experiments:
C. albicans (ATCC 18804) = test: Minimum inhibitory concentration by broth microdilution; format: cell-based; details: Candida albicans, ATCC18804, 50% inhibition of growth, RPMI 1640, 24 h, 37 °C, formulation weight for formulations
[1] = Erythrocyte lysis test (in vitro toxicity); format: cell-based; details: rabbit erythrocytes (0.2% RBC suspension), pH 7.4, dose of 10 mg/L, 37 °C, read-out: hemolytic ability to erythrocytes (percent hemolysis)
Procedure: The in vitro toxicity of free 2C and 2C-FL was determined using the previously published method of erythrocyte lysis test. Briefly, blood samples from a healthy rabbit were collected in an anticoagulant solution. The samples were centrifuged at 4 °C, the pellet containing erythrocytes was washed with PBS (pH 7.4), and, finally, 50% hematocrit was prepared. […] The hemolytic effects were evaluated by visible spectroscopy at 576 nm, and percent hemolysis was calculated. The 100% hemolytic ability of Triton X-100 was taken as the positive control. Results are expressed as the mean ± SD of three independent experiments.

C. albicans [2] = test: Survival of C. albicans-infected mice; format: in vivo, Swiss albino mice; details: 2 mg 2C/kg b.w. for five days
Procedure: The antifungal activity of 2C-FL was determined in a mouse model with C. albicans infection. For infection, healthy mice were infected with an inoculum of 100 µL saline containing 5 × 10^5 CFU of C. albicans per mouse by an intravenous route in the lateral tail vein. One day post-infection, the mice were randomly distributed into six groups (n = 10/group) and treated with formulations (2 mg 2C/kg b.w.) for five days. […] A simultaneous set of experiments was conducted for the survival studies.
The antifungal ability of 2C-FL was also determined by evaluating the survival rate of the treated mice. The study was conducted for 60 days, during which mice were monitored for mortality twice each day and results were scored.

[3] = parameters: method as in PMID 26457700; details: solubility checked earlier; cited from earlier work
C. albicans [4] = test: Annexin-V assay for detecting apoptosis; format: cell-based, Candida albicans; details: annexin V-FITC/PI flow cytometry
Procedure: The therapeutic effect of 2C-FL against fungal infection was done by detecting the presence of apoptosis markers in C. albicans, as mentioned by Tang et al.. Briefly, 5 × 10^6 colony-forming units (CFU)/mL of C. albicans were grown at 37 °C for 5 h in the RPMI 1640 medium containing 2C-L and 2C-FL, separately. The culture was further incubated for 48 h at 37 °C with shaking at 180 rpm. After harvesting and washing with PBS (pH 7.4), the fungus was digested with a lysis buffer. After digestion, apoptotic cell death was analyzed using an annexin V assay as per the published protocol. The fungal cell suspension was incubated with annexin V-FITC (50 µg/mL) and propidium iodide (PI; 200 µg/mL) in dark for 20 min at room temperature. The apoptotic and necrotic cells were scored by flow cytometry (MACSQuant, Germany).

[5] = Pharmacokinetics in healthy mice; format: in vivo; details: single dose, formulations 5 mg/kg b.w., free 2C 1 mg/kg b.w.
Procedure: For pharmacokinetic studies, 2C-L and 2C-FL were administered to healthy mice. A single dose of 5 mg/kg body weight (b.w.) of the formulations was injected via the tail vein. Free 2C was administered in a single dose comprising 1 mg/kg b.w. Blood aliquots were collected using a non-mortality model at different periods, and serum was centrifuged out. […] Results are reported as the mean ± SD of three independent experiments.

[6] = Histopathological examination of liver and kidney sections; format: in vivo; details: healthy mice, H&E, 200X
Procedure: (§1) For in vivo toxicity, renal and hepatic toxicities were evaluated in healthy mice. According to the method of Khan et al., [39], a three-dose regimen of 400 µg formulation/dose/mouse was intraperitoneally given on the 1st, 3rd, and 5th days. Blood samples from different treatment groups were taken as pre-dose (a day before the administration of the formulation) and post-dose (the 6th day of the administration of the formulation). The levels of serum creatinine, ALT, and total bilirubin were evaluated by employing a commercial detection kit. Results are expressed as the mean ± SD of three independent experiments. Moreover, the extent of toxicity of 2C-FL was determined on liver and kidney histopathology.
Briefly, the fixed tissues were dehydrated and embedded in paraffin wax. […] Next, paraffin from the sections was removed by three consecutive washings in xylol. The sections were then […] in series of alcohol grades (70–100%), and, finally, the sections were stained with hematoxylin and eosin and visualized under a light microscope (Olympus CLX 41) at 200X magnification.

[7] = tested on: Candida albicans ATCC 66027, Candida spp. 12,810 (blood) and Candida spp.; parameters: method as in PMID 24513049; details: in vitro, series of substituted thiosemicarbazide derivatives; cited from earlier work
[8] = In vivo renal and hepatic toxicity (serum creatinine, ALT, total bilirubin); details: healthy mice
Procedure: as §1

non-cancer cell lines = tested on: non-cancer cell lines; parameters: method as in PMID 24513049; details: cited from earlier work
[9] = Determination of 2C dose (LD50) in healthy mice; format: in vivo
Procedure: The dose of 2C for the antifungal treatment in vivo was determined according to the already published report. Five groups (n = 5/group) comprising healthy mice were intraperitoneally injected with different doses of 2C. Mice of the sixth group (control group) were intraperitoneally injected with PBS.

[10] = serum, post-dose, 400 µg formulation/dose/mouse i.p. on days 1, 3, 5

MIC (C. albicans (ATCC 18804)): 1.26 ± 0.71 µg/mL (≈ 1.79 µM)
SMILES: CCC(C)n1ncn(-c2ccc(N3CCN(c4ccc(OCC5COC(Cn6cncn6)(c6ccc(Cl)cc6Cl)O5)cc4)CC3)cc2)c1=O (stereo not shown) [Itraconazole, itraconazole, reference compound]

SMILES: O=C(NNC(=S)Nc1ccc(Cl)cc1)c1ccncc1 [2C]
hemolysis at 1 h, 10 mg/L [1]: 100%
MIC (C. albicans (ATCC 18804)): 0.46 ± 0.05 µg/mL (≈ 1.5 µM)
survival of treated mice till the 30th day (C. albicans [2]): 30%
solubility in water [3]: insoluble in water
necrosis (C. albicans [4]): prominent increase
Cmax ([5]; Swiss albino, mouse, plasma, intravenous): 1400 ± 250 ng/mL
clearance ([5]; Swiss albino, mouse, plasma, intravenous, read-out: CL (plasma clearance) (converted)): 1.28 mL/min
AUC0–24 [5]: 0.91 ± 0.17 µg/mL x h
toxic effect on kidney histopathology [6]: prominent toxicity
toxic effect on liver histopathology [6]: focal lytic necrosis and enlarged sinusoids
anti-Candida activity within the series [7]: most effective one
ALT, Day 6 [8, 10]: 45.1 ± 8.5 U/I
Creatinine, Day 6 [8, 10]: 0.34 ± 0.05 mg%
Total Bilirubin, Day 6 [8, 10]: 0.21 ± 0.07
ALT, Day 0 ([8]; serum, pre-dose): 40.9 ± 7.3 U/I
Creatinine, Day 0 ([8]; serum, pre-dose): 0.29 ± 0.06 mg%
Total Bilirubin, Day 0 ([8]; serum, pre-dose): 0.15 ± 0.04
change in serum creatinine, ALT and bilirubin levels versus healthy control ([8]; sixth day): showed an increase
toxicity to non-cancer cell lines (non-cancer cell lines): minimal toxicity
LD50 ([9]; healthy mice, intraperitoneal, mortality after 24 h): 20 mg/kg b.w.
mortality at one-tenth of the LD50 ([9]; mice, 2 mg/kg b.w., three weeks of treatment): did not show any mortality
